Results reported in ChEMBL document CHEMBL5678796, “A highly potent and selective farnesyltransferase inhibitor ABT-100 in preclinical studies” (Anticancer Drugs, 2005).

Columns and labels:
[1] = Cmax in rat at 25 mg/kg, po; assay type: ADME, organism-based; settings: in vivo
[2] = test system: HCT-116; assay: Antitumor activity against human HCT-116 cells xenografted in nu/nu CD1 mouse assessed as reduction in tumor volume by measuring test to control ratio at 50 mg/kg, sc preinoculated with cells for 5 days followed by once every 2 days compound administration for 11 times and measured on day 22; assay type: functional; settings: time 22 day
[3] = test system: HCT-116; assay: Inhibition of anchorage-independent growth in human HCT-116 cells assessed as inhibition of colony formation incubated for 14 days in presence of 10% FBS by imaging based soft agar colony formation assay; assay type: functional, cell-based
[4] = Inhibition of FTase in human DLD-1 cells expressing moderate level of P-gp1 using Ras as substrate assessed as inhibition of substrate post-translation processing in presence of 10% FBS by immunoblot analysis; assay type: cell-based
[5] = Ratio of EC50 for inhibition of FTase in human DLD-1 cells expressing moderate level of P-gp1 using Ras as substrate assessed as inhibition of substrate post-translation processing in presence of 20% human serum to EC50 for inhibition of FTase in human DLD-1 cells expressing moderate level of P-gp1 using Ras as substrate assessed as inhibition of substrate post-translation processing in presence …; settings: condition cancer
[6] = test system: HCT-116; assay: Antitumor activity against human HCT-116 cells xenografted in nu/nu CD1 mouse assessed as reduction in tumor volume by measuring tumor to control ratio at 12.5 mg/kg, sc preinoculated with cells for 5 days followed by once daily compound administration for 21 days and measured on day 25; assay type: functional; settings: time 25 day
[7] = test system: HCT-116; assay: Antitumor activity against human HCT-116 cells xenografted in nu/nu CD1 mouse assessed as tumor volume at 25 mg/kg, sc preinoculated with cells for 5 days followed by once daily compound administration for 21 days and measured on day 25 (reference value: 1569 +/- 165 mm^3); assay type: functional; settings: time 25 day
[8] = Half-life in dog at 2.5 mg/kg, iv; assay type: ADME, organism-based, Canis lupus familiaris; settings: in vivo
[9] = test system: HCT-116; assay: Antitumor activity against human HCT-116 cells xenografted in nu/nu CD1 mouse assessed as reduction in tumor volume by measuring test to control ratio at 50 mg/kg, sc preinoculated with cells for 14 days followed by once daily compound administration for 21 days and measured on day 40; assay type: functional; settings: time 40 day
[10] = test system: NIH3T3; assay: Inhibition of VEGF secretion in mouse NIH3T3 cells incubated for 72 hrs ELISA; assay type: functional, cell-based; settings: dose 0.1-3 µmol/L
[11] = test system: HCT-116; assay: Antitumor activity against human HCT-116 cells xenografted in nu/nu CD1 mouse assessed as increase in life span at 100 mg/kg, sc preinoculated with cells for 5 days followed by once every 2 days compound administration for 11 times and measured on day 22 relative to vehicle in time to 1 cm3 tumor; assay type: functional; settings: HCT-116, 528 h, time 22 day
[12] = Inhibition of recombinant bovine FTase incubated for 30 mins in presence of [3H]FPP by SPA based Topcount scintillation plate reader analysis; design: species or system Bos taurus
[13] = Clearance in dog at 2.5 mg/kg, iv; assay type: ADME, organism-based, Canis lupus familiaris; settings: in vivo
[14] = test system: HCT-116; assay: Antitumor activity against human HCT-116 cells xenografted in nu/nu CD1 mouse assessed as tumor volume at 100 mg/kg, sc preinoculated with cells for 5 days followed by once every 2 days compound administration for 11 times and measured on day 22 (reference value: 1557 +/- 370 mm^3); assay type: functional; settings: time 22 day
[15] = test system: Mus musculus; assay: Antiangiogenic activity in human recombinant bFGF-stimulated CF1 mouse corneal model assessed as inhibition of new blood growth area at 50 mg/kg, sc prestimulated with bFGF followed by compound administration and measured on day 5 by slit lamp biomicroscopic analysis relative to control; assay type: functional; settings: CF1, 120 h, time 5 day
[16] = test system: Mus musculus; assay: Antiangiogenic activity in human recombinant bFGF-stimulated CF1 mouse corneal model assessed as inhibition of new blood growth area at 100 mg/kg, sc prestimulated with bFGF followed by compound administration and measured on day 5 by slit lamp biomicroscopic analysis relative to control; assay type: functional; settings: CF1, 120 h, time 5 day
[17] = Inhibition of FTase in human HCT-15 cells expressing high level of P-gp1 using Ras as substrate assessed as inhibition of substrate post-translation processing in presence of 20% human serum by immunoblot analysis; assay type: cell-based
[18] = species on record: Bos taurus; assay: Selectivity index, ratio of IC50 for inhibition of bovine GGTase 1 to IC50 for inhibition of recombinant bovine FTase
[19] = Volume of distribution in rat at 5 mg/kg, iv; assay type: ADME, organism-based; settings: in vivo
[20] = test system: HCT-116; assay: Inhibition of VEGF mRNA expression in human HCT-116 cells incubated for 72 hrs by qRT-PCR analysis; assay type: functional, cell-based; settings: dose 1-30 µmol/L
[21] = Half-life in rat at 5 mg/kg, iv; assay type: ADME, organism-based; settings: in vivo
[22] = test system: HCT-116; assay: Antitumor activity against human HCT-116 cells xenografted in nu/nu CD1 mouse assessed as reduction in tumor volume by measuring tumor to control ratio at 6.25 mg/kg, sc preinoculated with cells for 5 days followed by once daily compound administration for 21 days and measured on day 25; assay type: functional; settings: time 25 day
[23] = test system: HCT-116; assay: Antitumor activity against human HCT-116 cells xenografted in nu/nu CD1 mouse assessed as increase in life span at 6.25 mg/kg, sc preinoculated with cells for 5 days followed by once daily compound administration for 21 days and measured on day 25 relative to vehicle in time to 1 cm^3 tumor; assay type: functional; settings: HCT-116, 600 h, time 25 day
[24] = Inhibition of FTase in human HCT-15 cells expressing high level of P-gp1 using Ras as substrate assessed as inhibition of substrate post-translation processing in presence of 10% FBS by immunoblot analysis; assay type: cell-based
[25] = Oral bioavailability in dog at 2.5 mg/kg; assay type: ADME, organism-based, Canis lupus familiaris; settings: in vivo
[26] = Inhibition of recombinant human FTase incubated for 30 mins in presence of [3H]FPP by SPA based Topcount scintillation plate reader analysis
[27] = Selectivity index, ratio of IC50 for inhibition of bovine GGTase 1 to IC50 for inhibition of recombinant human FTase
[28] = Ratio of EC50 for inhibition of FTase in human HCT-15 cells expressing high level of P-gp1 using Ras as substrate assessed as inhibition of substrate post-translation processing in presence of 20% human serum to EC50 for inhibition of FTase in human HCT-15 cells expressing high level of P-gp1 using Ras as substrate assessed as inhibition of substrate post-translation processing in presence of 10% …; settings: condition cancer

Work on `Cn1cncc1[C@](O)(COc1ccc(C#N)cc1-c1ccc(OC(F)(F)F)cc1)c1ccc(C#N)cc1` [ABT-100] yielded a Cmax [1] of 740 ng/mL, a T/C [2] of 65% and an EC50 ([3]; HCT-116, 336 h) of 6.1 nM. The inhibition ([3]; time 14.0 day) was “Dose-Dependent Effect”, the EC50 [4] was 0.26 nM and the “Ratio EC50” value [5] was 1.5. The T/C [6] was 39%, the Activity [7] was 553 mm3 and the half-life [8] was 6.8 h. For the same compound, the T/C [9] was 45%, the inhibition [10] was “Dose-Dependent Effect” and the ILS at 100 mg/kg [11] was 32%. It also gave an IC50 [12] of 0.13 nM, a clearance [13] of 5.67 mL/min/kg and an Activity [14] of 691 mm3. The inhibition in vivo at 50 mg/kg [15] was 34%, the inhibition in vivo at 100 mg/kg [16] was 49% and the EC50 [17] was 1.1 nM. For the same compound, the Ratio IC50 [18] was > 100000, the Vd [19] was 5.6 L/kg and the inhibition [20] was “Dose-Dependent Effect”. It also gave a half-life [21] of 2.3 h, a T/C [22] of 56% and an ILS at 6.25 mg/kg [23] of 50%. The EC50 [24] was 0.2 nM, the bioavailability [25] was 35.1% and the IC50 [26] was 0.05 nM. For the same compound, the Ratio IC50 [27] was > 100000 and the “Ratio EC50” value [28] was 1.5.
